Assay results: US20240024273A1, “TOPICAL ADMINISTRATION OF 2-(DIETHYLAMINO)ETHYL 2-(4-ISOBUTYLPHENYL)PROPRIONATE FOR TREATMENT OF DISEASES” (TECHFIELDS PHARMA CO., LTD., priority 2020, published 2024)
Like-named read-outs stand apart in the source and are kept apart here.

How the values were obtained:
dogs = test: Cardiovascular telemetry study in the unrestrained conscious non-naïve dog; format: in vivo; details: dermal 10, 25 and 50 mg/kg; up to 48 hours
[1] = Battery of nonclinical pharmacology and toxicology studies (overall); details: in vivo
Text: A battery of pharmacology and toxicology studies including a GLP acute dermal maximum tolerated dose study in rats, a GLP acute dermal maximum tolerated dose study in Beagle dogs, a non-GLP 14-day repeated dermal dose toxicity study in rats, a non-GLP 14-day repeated dermal dose toxicity study in Beagle dogs, a 28-day GLP repeated dermal dose toxicity and toxicokinetics study in rats with 14-day recovery, a 28-day GLP repeated dermal dose toxicity and toxicokinetics study in Beagle dogs with 14-day recovery, a GLP bacterial reverse mutation assay (Ames), a GLP in vitro chromosome aberration assay in CHO-WBL Cells, a GLP in vivo bone marrow micronucleus assay in rats, a behavioral effects in rats using the functional observational battery, a rat respiratory safety pharmacology study, a cardiovascular telemetry study in the unrestrained conscious non-naïve dog, a skin irritation study in rabbits, a study on embryo-fetal development in rats, a 39-week GLP repeated dermal dose toxicity and toxicokinetics study in mini pigs with 4-week recovery, a 26-week GLP repeated dermal dose toxicity and toxicokinetics study in rats with 4-week recovery, a study on fertility and early embryonic development to implantation in rats, a study on embryo-fetal development in rabbits, and a sensitization test in guinea pigs were conducted.

[2] = 28-day GLP repeated dermal dose toxicity and toxicokinetics study; parameters: species or system Rats; details: rat, in vivo; for Cmax / AUC(0-t): topical, 100 mg/kg/day, Day 28; for AUC(0-t): read-out: AUC0-24 h

CCN(CC)CCOC(=O)C(C)c1ccc(CC(C)C)cc1 (centres unmarked) [2-(diethylamino)ethyl 2-(4-isobutylphenyl)propionate]
qualitative ECG parameters (dogs): 25, and 50 mg/kg of ibuprofenamine and vehicle in dogs. There were no effects | overall safety [1]: appeared to be safe and were generally well tolerated | NOAEL at 28 days ([2]; both sexes, topical or ocular, 28-day dermal, male and female, read-out: systemic NOAEL): 100 mg/kg/day | Cmax ([2]; female, females): 46800 ng/mL | AUC(0-t) ([2]; female, females): 422 µg·h/mL | Cmax ([2]; male, males): 47400 ng/mL | AUC(0-t) ([2]; male, males): 165 µg·h/mL | NOAEL at 28 days ([2]; ulcers at application site at ≥100 mg/kg/day, read-out: local NOAEL): 25 mg/kg/day
